Laboratory results published in patent US7414041B2 (Trustees Of Tufts College, priority 1991, dated 2008).
Read-outs that look alike come from different tables or passages of the source.

Tests used:
[1] = test system: E. coli ML308; assay: MIC of tetracycline susceptible strains, C5 esters; format: cell-based; conditions: E. coli ML308, alone
[2] = test system: E. faecalis ATCC 9790; assay: MIC of tetracycline susceptible strains, C5 esters; format: cell-based; conditions: E. faecalis ATCC 9790, alone
[3] = test system: E. faecalis 158 (Tet L); assay: MIC/MLC chart, analog with and without doxycycline; format: cell-based
[4] = test system: S. aureus 4250 (Tet K); assay: MIC/MLC chart, analog with and without doxycycline; format: cell-based
[5] = test system: E. faecalis 211 (Tet M); assay: MIC/MLC chart, analog with and without doxycycline; format: cell-based;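 also: broth checkerboard of two-fold drug dilutions, alone and mixed with doxycycline, bacteria near 5×10^5 cells/ml, 18 h incubation at 37 °C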
[6] = biological target: T1, TET proteins responsible for tetracycline efflux (Class B tetracycline resistance determinant, strain D1-209) (Escherichia coli, UniProt P02980); assay: biochemical; design: species or system E. coli; conditions: uptake at 2.5 minutes, about 4 μM 3H-tetracycline; read-out: IC50
T1 construct: Everted vesicles, to which the TET proteins responsible for tetracycline efflux are attached; endogenous in cells; host or cells: E. coli strain D1-209 (everted membrane vesicles)
T1 sequence (P02980 whole entry): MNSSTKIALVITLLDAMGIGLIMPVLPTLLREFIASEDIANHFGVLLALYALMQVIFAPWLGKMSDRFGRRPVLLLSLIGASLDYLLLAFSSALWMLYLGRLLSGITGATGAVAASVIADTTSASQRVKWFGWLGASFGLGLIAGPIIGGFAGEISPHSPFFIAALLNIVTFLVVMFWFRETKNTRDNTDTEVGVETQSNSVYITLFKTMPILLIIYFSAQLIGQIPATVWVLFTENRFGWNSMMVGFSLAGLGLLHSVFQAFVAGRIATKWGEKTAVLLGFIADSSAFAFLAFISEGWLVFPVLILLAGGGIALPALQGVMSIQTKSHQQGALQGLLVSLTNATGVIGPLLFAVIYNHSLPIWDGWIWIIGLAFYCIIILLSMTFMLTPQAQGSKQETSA

[7] = test system: S. aureus 450; assay: MIC of tetracycline susceptible strains, C5 esters; format: cell-based; conditions: S. aureus 450, alone
[8] = test system: E. coli D1-299 (Tet A); format: cell-based;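 also: E. coli at roughly 5×10^5 cells/ml in L broth, analog and doxycycline alone or mixed in two-fold dilutions from 50 to under 1 µg/ml, 18 h at 37 °C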

Substance: 13-propylthio-5-proprionate-6-deoxy-tetracycline [Cmpd 8]
- MIC [1]: 20 µg/mL
- MIC [2]: 2.5 µg/mL
- growth / no growth (MIC) / killing (MLC) symbol ([3]; analog .195 + doxy 1.56 μg/ml): +
- growth / no growth (MIC) / killing (MLC) symbol ([3]; analog .195 + doxy 3.12 μg/ml): +
- growth / no growth (MIC) / killing (MLC) symbol ([3]; analog .39 + doxy 1.56 μg/ml): ◯
- growth / no growth (MIC) / killing (MLC) symbol ([3]; analog .39 + doxy 3.12 μg/ml): ◯
- growth / no growth (MIC) / killing (MLC) symbol ([3]; analog alone .195 μg/ml): +
- growth / no growth (MIC) / killing (MLC) symbol ([3]; analog alone .39 μg/ml): +
- growth / no growth (MIC) / killing (MLC) symbol ([3]; analog alone .78 μg/ml): +
- growth / no growth (MIC) / killing (MLC) symbol ([4]; analog .195 + doxy 1.56 μg/ml): +
- growth / no growth (MIC) / killing (MLC) symbol ([4]; analog .195 + doxy 3.12 μg/ml): ◯
- growth / no growth (MIC) / killing (MLC) symbol ([4]; analog alone .195 μg/ml): +
- growth / no growth (MIC) / killing (MLC) symbol ([5]; analog 1.56 + doxy 1.55 μg/ml): +
- growth / no growth (MIC) / killing (MLC) symbol ([5]; analog 1.56 + doxy 3.1 μg/ml): +
- growth / no growth (MIC) / killing (MLC) symbol ([5]; analog 1.56 + doxy 6.2 μg/ml): +
- growth / no growth (MIC) / killing (MLC) symbol ([5]; analog 3.12 + doxy 1.53 μg/ml): ◯
- growth / no growth (MIC) / killing (MLC) symbol ([5]; analog 3.12 + doxy 3.05 μg/ml): ◯
- growth / no growth (MIC) / killing (MLC) symbol ([5]; analog .195 + doxy 1.56 μg/ml): +
- growth / no growth (MIC) / killing (MLC) symbol ([5]; analog .195 + doxy 3.12 μg/ml): +
- growth / no growth (MIC) / killing (MLC) symbol ([5]; analog .195 + doxy 6.25 μg/ml): +
- growth / no growth (MIC) / killing (MLC) symbol ([5]; analog .195 + doxy 12.5 μg/ml): +
- growth / no growth (MIC) / killing (MLC) symbol ([5]; analog .39 + doxy 1.56 μg/ml): +
- growth / no growth (MIC) / killing (MLC) symbol ([5]; analog .39 + doxy 3.12 μg/ml): +
- growth / no growth (MIC) / killing (MLC) symbol ([5]; analog .39 + doxy 6.25 μg/ml): +
- growth / no growth (MIC) / killing (MLC) symbol ([5]; analog .39 + doxy 12.5 μg/ml): +
- growth / no growth (MIC) / killing (MLC) symbol ([5]; analog .78 + doxy 1.56 μg/ml): +
- growth / no growth (MIC) / killing (MLC) symbol ([5]; analog .78 + doxy 3.12 μg/ml): +
- growth / no growth (MIC) / killing (MLC) symbol ([5]; analog .78 + doxy 6.23 μg/ml): +
- growth / no growth (MIC) / killing (MLC) symbol ([5]; analog alone 1.56 μg/ml): +
- growth / no growth (MIC) / killing (MLC) symbol ([5]; analog alone 3.12 μg/ml): ◯
- growth / no growth (MIC) / killing (MLC) symbol ([5]; analog alone .195 μg/ml): +
- growth / no growth (MIC) / killing (MLC) symbol ([5]; analog alone .39 μg/ml): +
- growth / no growth (MIC) / killing (MLC) symbol ([5]; analog alone .78 μg/ml): +
- IC50 [6]: 1400 nM
- MIC [7]: .3 µg/mL
- growth / no growth (MIC) / killing (MLC) symbol ([8]; analog 1.56 + doxy 1.55 μg/ml): +
- growth / no growth (MIC) / killing (MLC) symbol ([8]; analog 1.56 + doxy 3.1 μg/ml): +
- growth / no growth (MIC) / killing (MLC) symbol ([8]; analog 1.56 + doxy 6.2 μg/ml): +
- growth / no growth (MIC) / killing (MLC) symbol ([8]; analog 1.56 + doxy 12.3 μg/ml): ◯
- growth / no growth (MIC) / killing (MLC) symbol ([8]; analog 3.12 + doxy 1.53 μg/ml): +
- growth / no growth (MIC) / killing (MLC) symbol ([8]; analog 3.12 + doxy 3.05 μg/ml): +
- growth / no growth (MIC) / killing (MLC) symbol ([8]; analog 3.12 + doxy 6.1 μg/ml): +
- growth / no growth (MIC) / killing (MLC) symbol ([8]; analog 6.25 + doxy 5.9 μg/ml): +
- growth / no growth (MIC) / killing (MLC) symbol ([8]; analog 6.25 + doxy 3.0. μg/ml): +
- growth / no growth (MIC) / killing (MLC) symbol ([8]; analog 6.25 + doxy […]): +
- growth / no growth (MIC) / killing (MLC) symbol ([8]; analog 12.5 + doxy 2.8 μg/ml): +
- growth / no growth (MIC) / killing (MLC) symbol ([8]; analog 12.5 + doxy 5.5 μg/ml): +
- growth / no growth (MIC) / killing (MLC) symbol ([8]; analog 12.5 + doxy […]): +
- growth / no growth (MIC) / killing (MLC) symbol ([8]; analog 25 + doxy 2.4 μg/ml): +
- growth / no growth (MIC) / killing (MLC) symbol ([8]; analog 25 + doxy 4.7 μg/ml): +
- growth / no growth (MIC) / killing (MLC) symbol ([8]; analog 25 + doxy […]): +
- growth / no growth (MIC) / killing (MLC) symbol ([8]; analog 50 + doxy 1.56 μg/ml): +
- growth / no growth (MIC) / killing (MLC) symbol ([8]; analog 50 + doxy 3.12 μg/ml): +
- growth / no growth (MIC) / killing (MLC) symbol ([8]; analog 50 + doxy .78 μg/ml): +
- growth / no growth (MIC) / killing (MLC) symbol ([8]; analog .195 + doxy 1.56 μg/ml): +
- growth / no growth (MIC) / killing (MLC) symbol ([8]; analog .195 + doxy 3.12 μg/ml): +
- growth / no growth (MIC) / killing (MLC) symbol ([8]; analog .195 + doxy 6.25 μg/ml): +
- growth / no growth (MIC) / killing (MLC) symbol ([8]; analog .195 + doxy 12.5 μg/ml): +
- growth / no growth (MIC) / killing (MLC) symbol ([8]; analog .39 + doxy 1.56 μg/ml): +
- growth / no growth (MIC) / killing (MLC) symbol ([8]; analog .39 + doxy 3.12 μg/ml): +
- growth / no growth (MIC) / killing (MLC) symbol ([8]; analog .39 + doxy 6.25 μg/ml): +
- growth / no growth (MIC) / killing (MLC) symbol ([8]; analog .39 + doxy 12.5 μg/ml): +
- growth / no growth (MIC) / killing (MLC) symbol ([8]; analog .78 + doxy 1.56 μg/ml): +
- growth / no growth (MIC) / killing (MLC) symbol ([8]; analog .78 + doxy 3.12 μg/ml): +
- growth / no growth (MIC) / killing (MLC) symbol ([8]; analog .78 + doxy 6.23 μg/ml): +
- growth / no growth (MIC) / killing (MLC) symbol ([8]; analog .78 + doxy 12.4 μg/ml): +
- growth / no growth (MIC) / killing (MLC) symbol ([8]; analog alone 1.56 μg/ml): +
- growth / no growth (MIC) / killing (MLC) symbol ([8]; analog alone 3.12 μg/ml): +
- growth / no growth (MIC) / killing (MLC) symbol ([8]; analog alone 6.25 μg/ml): +
- growth / no growth (MIC) / killing (MLC) symbol ([8]; analog alone 12.5 μg/ml): +
- growth / no growth (MIC) / killing (MLC) symbol ([8]; analog alone 25.0 μg/ml): +
- growth / no growth (MIC) / killing (MLC) symbol ([8]; analog alone 50.00 μg/ml): +
- growth / no growth (MIC) / killing (MLC) symbol ([8]; analog alone .195 μg/ml): +
- growth / no growth (MIC) / killing (MLC) symbol ([8]; analog alone .39 μg/ml): +
- growth / no growth (MIC) / killing (MLC) symbol ([8]; analog alone .78 μg/ml): +
